Results on 45 compounds are retold here after ChEMBL document CHEMBL1129324, “Tyrphostins. 5. Potent inhibitors of platelet-derived growth factor receptor tyrosine kinase: structure-activity relationships in quinoxalines, quinolines, and indole tyrphostins” (J Med Chem, 1996).

Some results are limits rather than exact numbers.

This test addresses Platelet-derived growth factor receptor (Mus musculus, UniProt P05622+P26618). The experiment in a line: Inhibitory activity against platelet-derived growth factor receptor tyrosine kinase in Swiss 3T3 cells. Type of test: cell-based.
A word on the IC50: it is the point on the concentration scale where inhibition reaches its midpoint. The low end stands for higher potency, the high end for lower potency. As for `CCOCc1nc2cc(C)c(C)cc2nc1-c1ccccc1`, the IC50 is > 50 µM.

Regarding `Cc1cc2nc3[nH]c4ccc(Br)cc4c3nc2cc1C`, the 50% inhibitory concentration (IC50) is > 50 µM.

For the compound `COc1cc2nc(O)c(-c3ccccc3)nc2cc1OC`, the IC50 was > 50 µM.

Turning to `Cc1cc2nc(CN(C)C)c(-c3ccccc3)nc2cc1C`, the IC50 is > 50 µM.

Regarding `c1csc(-c2cnc3ccccc3n2)c1`, the concentration for half-maximal inhibition (IC50) amounted to 100 µM.

For the compound `Cc1cc2nc(CSCc3nc4cc(C)c(C)cc4nc3-c3ccccc3)c(-c3ccccc3)nc2cc1C`, the IC50 was > 50 µM.

Turning to `Nc1ncnc2ncc(-c3ccccc3)nc12`, the IC50 was > 50 µM.

For the compound `Oc1cc2ncc(-c3ccccc3)nc2cc1O`, the concentration for half-maximal inhibition (IC50) is > 100 µM.

`Cc1cc2nc(C(=O)O)c(-c3ccccc3)nc2cc1C` returned a half-maximal inhibitory concentration (IC50) of 1 µM.

Regarding `Cc1cc2nc(CBr)c(-c3ccccc3)nc2cc1C`, the 50% inhibitory concentration (IC50) was > 50 µM.

As to `Cc1nc2ccccc2nc1C`, the half-inhibitory concentration (IC50) is > 100 µM.

With `Cc1cc2nc(CP(=O)(O)O)c(-c3ccccc3)nc2cc1C`, the IC50 was > 50 µM.

On to `O=c1nc2[nH]c3ccccc3nc-2c(=O)[nH]1` [ALLOXAZINE], for which the IC50 is > 50 µM.

As to `COc1cc2nc(-c3ccccc3)cnc2cc1O`, the IC50 came to 100 µM.

Take `c1ccc(-c2ccc(-c3cnc4ccccc4n3)s2)cc1`: the half-maximal inhibitory concentration (IC50) was > 100 µM.

`Cc1ccc(-c2cnc3ccccc3n2)s1`: the half-inhibitory concentration (IC50) was > 100 µM.

`O=[N+]([O-])c1ccc2ncc(-c3ccccc3)nc2c1` returned a half-inhibitory concentration (IC50) of 25 µM.

On to `Cc1cc2nc(C)c(C)nc2cc1C`, for which the IC50 is > 50 µM.

`Cc1cc2ncc(-c3ccc(O)c(O)c3)nc2cc1C` displayed a concentration for half-maximal inhibition (IC50) of 0.6 µM. That is a sub-micromolar value.

Consider `c1ccc2nc(-c3ccsc3)cnc2c1`, for which the IC50 was > 100 µM.

In the case of `Cc1cc2nc(CSCCOCCSCc3nc4cc(C)c(C)cc4nc3-c3ccccc3)c(-c3ccccc3)nc2cc1C`, the 50% inhibitory concentration (IC50) was > 50 µM.

Turning to `CCOP(=O)(Cc1nc2cc(C)c(C)cc2nc1-c1ccccc1)OCC`, the IC50 was > 50 µM.

In the case of `Cc1cc2nc(O)c(-c3ccccc3)nc2cc1C`, 10 µM corresponded to half-maximal inhibition (IC50).

`COc1cc2ncc(-c3ccccc3)nc2cc1OC` showed a concentration for half-maximal inhibition (IC50) of 0.8 µM.

Turning to `c1ccc(-c2nc3ccccc3nc2-c2ccccc2)cc1`, the IC50 was > 50 µM.

In turn, `c1ccc(-c2nc3ccccc3nc2-c2ccccn2)nc1` had a 50% inhibitory concentration (IC50) of 100 µM.

`Cc1cc2nc(C=O)c(-c3ccccc3)nc2cc1C`: the half-maximal inhibitory concentration (IC50) is > 50 µM.

As to `Cc1cc2nc(-c3ccccn3)c(-c3ccccn3)nc2cc1C`, the half-inhibitory concentration (IC50) is > 100 µM.

As for `Cc1cc2nc(CSCCCSCc3nc4cc(C)c(C)cc4nc3-c3ccccc3)c(-c3ccccc3)nc2cc1C`, the 50% inhibitory concentration (IC50) was > 50 µM.

The compound `O=C(c1ccccc1)c1ccc2ncc(-c3ccccc3)nc2c1` showed an IC50 of 6 µM.

Regarding `Cc1cc2nc(O)c(-c3ccccc3)[n+]([O-])c2cc1C`, the concentration for half-maximal inhibition (IC50) was > 50 µM.

As for `c1coc(-c2cnc3ccccc3n2)c1`, the half-maximal inhibitory concentration (IC50) was > 100 µM.

On to `CCOC(=O)c1nc2cc(C)c(C)cc2nc1-c1ccccc1`, for which the IC50 was > 50 µM.

`c1ccc(-c2cnc3ccccc3n2)cc1` displayed an IC50 of 10 µM.

In turn, `c1ccc(-c2cnc3cc4ccccc4cc3n2)cc1` displayed a concentration for half-maximal inhibition (IC50) of 0.9 µM.

With `O=C(O)c1ccc2ncc(-c3ccccc3)nc2c1`, the IC50 was > 50 µM.

On to `c1ccc2nc(-c3c[nH]c4ccccc34)cnc2c1`, for which the IC50 was > 100 µM.

With `Cc1cc2nc(C)c(-c3ccccc3)nc2cc1C`, the IC50 is > 50 µM.

Compound `Cc1ccc2ncc(-c3ccccc3)nc2c1` returned an IC50 of 90 µM.

`Clc1cc2ncc(-c3ccccc3)nc2cc1Cl`: the IC50 is > 50 µM.

On to `Cc1cc2nc(Cl)c(-c3ccccc3)nc2cc1C`, for which the IC50 was > 50 µM.

For `CC(C)CCc1ccc(-c2cnc3ccccc3n2)s1`, the IC50 is > 100 µM.

For `c1coc(-c2nc3ccccc3nc2-c2ccco2)c1`, the IC50 is > 100 µM.

Compound `c1ccc(-c2cnc3ncccc3n2)cc1` came in with an IC50 of 35 µM.

On to `Cc1nc2ccccc2nc1-c1ccccc1`, for which the IC50 was > 100 µM.
